Reference: US5436243A, “Aminoanthraquinone derivatives to combat multidrug resistance” (priority 1993, dated 1995)

How the values were obtained:
MCF7 Adr 10 [1] = assay: 72 hour MTT proliferation assay, reversal of drug resistance in MCF7 Adr 10; type: cell-based, human; settings: [1c] 0 μM
Description: In 72 hour MTT proliferation assays using the following method, compounds 1b, 1c and 1d were assessed for inhibition of Vinca alkaloid and anthracycline drug resistance in MDR MCF7. Additionally, compounds 1b and 1c were assessed for potentiation of sensitivity to Vinca alkaloid and anthracycline drugs in the parental MCF7 WT cell line.
METHOD: 5000 cells per well were plated in 100 μl of IMDM containing 10% FCS and allowed to adhere overnight. The following day the cells were treated with N-substituted 1,4-diaminoanthraquinones and exposed to graded concentrations of antineoplastic agents. 50 μl of IMDM 10% FCS containing either vehicle or N-substituted 1,4-diaminoanthraquinones at 3 times the final tested concentration was added to cells at timed intervals. The plates were incubated for 2 hours at 37° C. to allow maximal cellular accumulation of N-substituted 1,4-diaminoanthraquinones. 40 μl aliquots of IMDM 10% FCS containing either vehicle or graded concentrations of antineoplastic drugs at 5 times the final concentration were added to treatment groups. Following this addition, 10 μl of IMDM 10% FCS containing either vehicle or N-substituted 1,4-diaminoanthraquinone at 5 times the final concentration was added to each group of wells. The cells were incubated for 72 hours after treatment. At this time the viable cells in each treatment group were estimated in a colorimetric assay by adding MTT and incubating the cells at 37° C. for 3-4 hours. The media in each well was aspirated and MTT formazan was solubilized in isopropyl alcohol acidified with 0.1 N HCl. The absorbance of the solubilized formazan was quantitated using a plate reader spectrophotometer. […] The concentrations of antineoplastic drugs which inhibited proliferation by 50% (IC50's) were estimated by calculating a percentage from the ratio: antineoplastic drug treated groups/control group absorbance and plotting the dose response curve on semilog paper. The IC50 was estimated from this curve. To assess the effects of inhibition of resistance by N-substituted 1,4-diaminoanthraquinones, the percentages were calculated relative to cell groups treated with resistance modifier alone and IC50's calculated as above. A reversal factor was calculated by dividing the IC50 to the antineoplastic drug alone (Control group) by the IC50 to antineoplastic drug in cells treated with resistance modifier.

MCF7 WT = assay: Tumor cell clonogenic assay, MCF7 WT; type: cell-based, human; settings: Homo sapiens, MCF7, read-out: Continuous Exposure IC50, MCF7 WT
Description: The tumor cell clonogenic assays measure clonal proliferation of tumor cells. In this assay, 300-500 cells are plated in 10 cm^2 wells, allowed to adhere overnight, and are treated the following day. Tumor cell colonies were counted after 10-12 days of culture. […] The IC50's are calculated as described above for the MTT proliferation assays.

MCF7 Adr 10 [2] = assay: Tumor cell clonogenic assay, MCF7 ADR 10; type: cell-based, human; settings: Homo sapiens, NCI/ADR-RES, read-out: Continuous Exposure IC50, MCF7 ADR 10
in vitro = settings: human
Description: (§1) Myelosuppression is often a dose limiting side effect of chemotherapeutic agents. […] The toxicities to human granulocyte-macrophage progenitors (CFU-GM) of 1b, 1c, and VLB was assessed by measuring inhibition of CFU-GM proliferation in cultures continuously exposed to each agent alone and compared to the toxicities to sensitive and resistant MCF7 in tumor cell clonogenic assays.
(§2) METHOD: The CFLI-GM assay measures clonal proliferation of granulocyte/macrophage precursors in semisolid agar cultures. The progeny of the granulocyte/macrophage precursors remain in proximity of the progenitor cells and form colonies. Colonies which contain greater than 40 cells after 10-12 days of culture are counted using an inverted phase contrast microscope. The tumor cell clonogenic assays measure clonal proliferation of tumor cells. In this assay, 300-500 cells are plated in 10 cm^2 wells, allowed to adhere overnight, and are treated the following day. Tumor cell colonies were counted after 10-12 days of culture. The times of exposure in these experiments are similar; however, the concentrations of FCS are 20% in the CFU-GM assay and 10% in the tumor cell clonogenic assays. The IC50's are calculated as described above for the MTT proliferation assays. (See Example 4).
(§3) To facilitate this comparison, a CFLI-GM toxicity index was calculated by dividing the CFU-GM IC50 by the respective tumor cell clonogenic IC50's in sensitive and resistant cells.

[3] = test system: granulocyte-macrophage progenitors (CFU-GM); assay: in vitro
Description: as §1, §2, §3

[4] = test system: renal cell carcinoma cell lines, A704, SKRC7 and UOK-39
[5] = molecular target: P-glycoprotein in MCF7 Adr 10 membrane vesicles (Homo sapiens, UniProt P08183); settings: MCF7 Adr 10 vesicles
Chain of P-glycoprotein in MCF7 Adr 10 membrane vesicles (P08183 whole entry): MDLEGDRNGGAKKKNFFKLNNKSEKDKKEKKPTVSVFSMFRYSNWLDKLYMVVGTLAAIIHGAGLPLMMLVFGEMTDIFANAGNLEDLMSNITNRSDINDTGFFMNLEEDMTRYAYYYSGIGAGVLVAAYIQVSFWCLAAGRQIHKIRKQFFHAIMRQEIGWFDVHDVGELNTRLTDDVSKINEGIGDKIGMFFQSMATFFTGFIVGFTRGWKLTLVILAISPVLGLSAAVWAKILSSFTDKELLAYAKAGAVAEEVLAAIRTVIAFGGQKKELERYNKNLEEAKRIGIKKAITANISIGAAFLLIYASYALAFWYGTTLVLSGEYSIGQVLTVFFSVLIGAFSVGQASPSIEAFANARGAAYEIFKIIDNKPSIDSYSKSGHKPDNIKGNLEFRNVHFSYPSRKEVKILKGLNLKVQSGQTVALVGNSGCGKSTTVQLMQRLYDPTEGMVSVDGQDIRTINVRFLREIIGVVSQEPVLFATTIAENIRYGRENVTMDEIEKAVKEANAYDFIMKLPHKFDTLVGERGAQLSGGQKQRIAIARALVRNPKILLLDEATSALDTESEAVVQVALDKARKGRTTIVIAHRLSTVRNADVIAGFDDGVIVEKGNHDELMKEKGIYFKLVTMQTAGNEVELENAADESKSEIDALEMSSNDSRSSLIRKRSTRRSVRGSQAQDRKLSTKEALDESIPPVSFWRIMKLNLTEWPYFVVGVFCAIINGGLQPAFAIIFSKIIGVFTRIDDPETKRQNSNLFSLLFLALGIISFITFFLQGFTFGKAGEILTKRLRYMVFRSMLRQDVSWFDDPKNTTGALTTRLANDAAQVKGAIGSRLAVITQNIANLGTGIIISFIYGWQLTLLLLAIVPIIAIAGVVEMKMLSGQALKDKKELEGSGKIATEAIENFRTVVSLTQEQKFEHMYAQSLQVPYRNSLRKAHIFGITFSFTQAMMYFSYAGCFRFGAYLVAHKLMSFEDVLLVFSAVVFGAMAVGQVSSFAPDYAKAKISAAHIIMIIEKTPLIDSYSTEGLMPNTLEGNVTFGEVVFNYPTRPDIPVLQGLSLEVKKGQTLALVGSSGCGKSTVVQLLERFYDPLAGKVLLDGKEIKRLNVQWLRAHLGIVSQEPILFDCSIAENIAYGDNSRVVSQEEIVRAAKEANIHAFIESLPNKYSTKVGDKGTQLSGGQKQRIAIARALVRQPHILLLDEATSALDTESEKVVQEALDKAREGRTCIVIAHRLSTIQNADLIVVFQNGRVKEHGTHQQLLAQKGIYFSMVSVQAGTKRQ

CC[C@]1(O)C[C@@H]2CN(CCc3c([nH]c4ccccc34)[C@@](C(=O)OC)(c3cc4c(cc3OC)N(C)[C@H]3[C@@](O)(C(=O)OC)[C@H](OC(C)=O)[C@]5(CC)C=CCN6CC[C@]43[C@@H]65)C2)C1 [VLB, reference compound]
IC50 (MCF7 Adr 10 [1]; Homo sapiens, NCI/ADR-RES, average ± SD of 3 experiments, read-out: VLB IC50): 790 nM | Reversal Factor (VLB) (MCF7 Adr 10 [1]): 1.0 | IC50 (MCF7 WT): 0.59 nM | IC50 (MCF7 Adr 10 [2]): 210 nM | selectivity ratio (in vitro; cfu-gm vs mcf7, CFU-GM toxicity indices): < 1 | selectivity ratio (in vitro; cfu-gm vs mcf7 adr 10, toxicity to CFU-GM relative to MDR cells): ~1000 | toxicity to CFU-GM relative to drug sensitive WT cancer cells [3]: approximately twice as toxic to CFU-GM | IC50 ([3]; Homo sapiens, CFU-GM, read-out: Continuous Exposure IC50, CFU-GM): 0.28 nM | vinblastine IC50 in renal lines relative to vinblastine IC50 of sensitive MCF7 [4]: 10-600 fold | effect of unlabeled VLB on [3H] VLB association [5]: inhibited by addition of unlabeled VLB
